The text below walks through data of ChEMBL document CHEMBL3621090, “Discovery of a novel Kv7 channel opener as a treatment for epilepsy” (Bioorg Med Chem Lett, 2015).

Data set [1] concerns the target Voltage-gated potassium channel, KQT; KCNQ2(Kv7.2)/KCNQ3(Kv7.3) (Homo sapiens) (UniProt O43526+O43525). Nature of the data set: (§1) Activation of human Kv7.2/7.3 expressed in CHOK1 cells. The settings on record: CHO-K1. It is filed as cell-based.
Data set [2] deals with Voltage-gated potassium channel, KQT; KCNQ2(Kv7.2)/KCNQ3(Kv7.3) (Homo sapiens, UniProt O43525+O43526). The data set is described as §1. It is filed as cell-based, CHO-K1.
Chain of Voltage-gated potassium channel, KQT; KCNQ2(Kv7.2)/KCNQ3(Kv7.3) (O43526 whole entry): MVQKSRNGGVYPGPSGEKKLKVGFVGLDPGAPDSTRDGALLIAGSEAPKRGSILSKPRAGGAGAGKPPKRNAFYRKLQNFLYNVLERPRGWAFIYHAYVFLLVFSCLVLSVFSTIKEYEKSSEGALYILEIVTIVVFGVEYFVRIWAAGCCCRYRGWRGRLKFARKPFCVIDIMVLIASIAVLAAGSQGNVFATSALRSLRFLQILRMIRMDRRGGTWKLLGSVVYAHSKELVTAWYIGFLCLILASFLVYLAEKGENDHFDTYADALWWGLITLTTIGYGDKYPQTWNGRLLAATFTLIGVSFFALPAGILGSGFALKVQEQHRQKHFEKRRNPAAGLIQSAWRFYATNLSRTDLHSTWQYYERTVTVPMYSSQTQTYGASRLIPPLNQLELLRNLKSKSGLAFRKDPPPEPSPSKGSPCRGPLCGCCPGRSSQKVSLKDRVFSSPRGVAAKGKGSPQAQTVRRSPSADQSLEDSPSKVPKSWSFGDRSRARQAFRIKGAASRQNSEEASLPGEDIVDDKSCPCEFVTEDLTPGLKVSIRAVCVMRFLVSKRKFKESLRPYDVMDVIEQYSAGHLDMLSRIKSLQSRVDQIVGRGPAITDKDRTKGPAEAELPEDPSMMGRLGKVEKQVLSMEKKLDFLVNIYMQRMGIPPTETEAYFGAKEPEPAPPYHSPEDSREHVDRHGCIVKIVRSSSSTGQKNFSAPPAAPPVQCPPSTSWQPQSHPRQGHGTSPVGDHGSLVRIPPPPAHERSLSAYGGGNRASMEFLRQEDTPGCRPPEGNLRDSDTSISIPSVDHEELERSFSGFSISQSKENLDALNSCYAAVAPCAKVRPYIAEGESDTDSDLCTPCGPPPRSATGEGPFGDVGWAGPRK
Chain of Voltage-gated potassium channel, KQT; KCNQ2(Kv7.2)/KCNQ3(Kv7.3) (O43525 whole entry): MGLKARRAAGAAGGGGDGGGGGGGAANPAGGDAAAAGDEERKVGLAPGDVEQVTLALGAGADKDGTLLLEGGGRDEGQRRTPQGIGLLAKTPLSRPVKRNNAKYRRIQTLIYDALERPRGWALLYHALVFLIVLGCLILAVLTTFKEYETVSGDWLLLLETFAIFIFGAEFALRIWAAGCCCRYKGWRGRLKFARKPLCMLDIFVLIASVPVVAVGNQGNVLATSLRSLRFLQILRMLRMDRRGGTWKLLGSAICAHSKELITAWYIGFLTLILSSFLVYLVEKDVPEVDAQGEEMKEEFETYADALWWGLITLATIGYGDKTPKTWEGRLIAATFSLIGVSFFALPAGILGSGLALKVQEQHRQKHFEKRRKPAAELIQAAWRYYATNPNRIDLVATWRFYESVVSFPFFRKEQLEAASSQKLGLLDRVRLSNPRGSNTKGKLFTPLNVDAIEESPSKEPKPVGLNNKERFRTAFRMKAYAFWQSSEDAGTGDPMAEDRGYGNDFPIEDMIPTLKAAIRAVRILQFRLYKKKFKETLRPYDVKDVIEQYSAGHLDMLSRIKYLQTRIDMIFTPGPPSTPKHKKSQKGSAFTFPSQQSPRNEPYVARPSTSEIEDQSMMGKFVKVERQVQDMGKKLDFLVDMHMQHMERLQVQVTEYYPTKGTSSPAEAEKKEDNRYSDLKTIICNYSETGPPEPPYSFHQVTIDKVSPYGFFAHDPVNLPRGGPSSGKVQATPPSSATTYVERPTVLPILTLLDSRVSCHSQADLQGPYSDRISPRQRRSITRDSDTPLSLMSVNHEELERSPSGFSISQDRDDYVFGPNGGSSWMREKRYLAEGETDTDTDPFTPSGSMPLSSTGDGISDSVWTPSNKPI
Data set [3] in a line: Intrinsic clearance in human liver microsomes measured over 1 hr in presence of NADPH regenerating system. In kind it is ADME. Conditions: read-out: CLH.
Another data set concerns MDCK. Put plainly: Efflux ratio of permeability from basolateral to apical over apical to basolateral side in MDCK cells transfected with MDR1. It is filed as ADME, cell-based, Canis lupus familiaris. Conditions: dog.
A short description of data set [4]: Toxicity in human THLE cells assessed as ATP depletion. It is filed as cell-based.
A short description of data set [5]: Permeability in dog RRCK cells after 2 hrs by transwell assay. It is filed as ADME, cell-based, Canis lupus familiaris, MDCKII-LE. Conditions: mdck, read-out: permeability.
In a further data set the test system is Liver microsome. Put plainly: Stability in human liver microsomes in absence of NADPH. In kind it is ADME.

The EC50 is the concentration needed to bring the measured effect to its halfway point. The compound `COc1nc(N2CCC(OC)CC2)nc(OC)c1NC(=O)CCC(C)C` displayed a max activation in data set [1] of 132%. For the same compound, it took 0.304 µM to reach a half-maximal effect in data set [2] (EC50).

Broadly, the IC50 is the midpoint of a concentration-inhibition curve. For `COCCN(C)c1nc(OC)c(NC(=O)CC(C)(C)C)c(OC)n1`, the max activation in data set [1] amounted to 166%. The same compound came in with a half-maximal effective concentration (EC50) in data set [2] of 0.206 µM. For the same compound, the CLint scaled in data set [3] amounted to 21 mL/min/kg. In the data set on MDCK, the Ratio is recorded as 1.11. Moreover, the concentration for half-maximal inhibition (IC50) in data set [4] is above 300 µM.

In the case of `COc1nc(N2CCC(OC(C)C)CC2)nc(OC)c1NC(=O)CC(C)(C)C`, in data set [1], the max activation was 145%. This compound registered a 50% effective concentration (EC50) in data set [2] of 0.358 µM.

The compound `COc1nc(N2CCC(OC)CC2)nc(OC)c1NC(=O)CC(C)C` yielded a max activation in data set [1] of 138%. The 50% effective concentration (EC50) in data set [2] was determined as 0.63 µM.

Compound `COc1nc(N2CCSCC2)nc(OC)c1NC(=O)CC(C)(C)C` came in with a max activation in data set [1] of 92%. The concentration for a half-maximal effect (EC50) in data set [2] came out at 0.024 µM. Also, the CLint scaled in data set [3] was 69.6 mL/min/kg.

As to `COc1nc(N2CCC(F)(F)CC2)nc(OC)c1NC(=O)CC(C)(C)C`, in data set [1], the max activation came out at 99%. Further, the response in data set [2] was half-maximal at 0.05 µM (EC50). In addition, the CLint scaled in data set [3] was 21.6 mL/min/kg. For the same compound, in the data set with MDCK, the Ratio is 1.29. Besides, the concentration for half-maximal inhibition (IC50) in data set [4] was above 300 µM.

Regarding `CCOC(=O)Nc1ccc(NCc2ccc(F)cc2)cc1N` [EZOGABINE], the CLint scaled in data set [3] is below 8 mL/min/kg. In addition, the Papp at 2 h in data set [5] was found to be 34.2 ×10⁻⁶ cm/s. For the same compound, the Ratio with MDCK is reported as 1.13. In addition, the 50% inhibitory concentration (IC50) in data set [4] stood at 213 µM.

As for `COc1nc(N2CCCOCC2)nc(OC)c1NC(=O)CC(C)(C)C`, the max activation in data set [1] was 85%. In data set [2], this compound gave a half-maximal effective concentration (EC50) of 0.062 µM. In data set [3], the CLint scaled was found to be 24.4 mL/min/kg. In data set [5], the Papp at 2 h is 20.2 ×10⁻⁶ cm/s. Further, the Ratio in the data set with MDCK stood at 1.25. The IC50 in data set [4] was above 300 µM.

For the compound `COc1nc(N2C[C@@H]3C[C@H]2CO3)nc(OC)c1NC(=O)CC(C)(C)C`, the max activation in data set [1] stood at 101%. This compound had an EC50 in data set [2] of 1.89 µM.

In the case of `COc1nc(N2CCOCC2)nc(OC)c1NC(=O)CC(C)(C)C`, in data set [1], the max activation is 95%. In addition, the midpoint of the response in data set [2], the EC50, lay at 0.164 µM. For the same compound, the CLint scaled in data set [3] is below 10.4 mL/min/kg. Also, in data set [5], the Papp at 2 h stood at 25.9 ×10⁻⁶ cm/s. In addition, the Ratio with MDCK is on record as 1.11. Moreover, the 50% inhibitory concentration (IC50) in data set [4] was above 300 µM.

As to `COc1nc(N2CC(F)(F)C2)nc(OC)c1NC(=O)CC(C)(C)C`, the max activation in data set [1] was 103%. In addition, in data set [2], a half-maximal response (EC50) required 0.11 µM. Besides, the CLint scaled in data set [3] was 18.9 mL/min/kg. The Papp at 2 h in data set [5] came out at 28 ×10⁻⁶ cm/s. Further, the Ratio with MDCK came out at 1.29. Besides, in data set [4], the IC50 was above 300 µM.

As to `COc1nc(N2CCC(OC)CC2)nc(OC)c1NC(=O)CCC1CCCC1`, in data set [1], the max activation was 126%. This compound gave a 50% effective concentration (EC50) in data set [2] of 0.04 µM. In addition, in data set [5], the Papp at 2 h was found to be 15.2 ×10⁻⁶ cm/s. The Ratio in the data set on MDCK was 1.21. Further, the 50% inhibitory concentration (IC50) in data set [4] came out at 80.5 µM. For the same compound, the Stability result in the data set on Liver microsome is given as “Unstable”.

The compound `COc1nc(N2CCCCC2)nc(OC)c1NC(=O)CC(C)(C)C` gave a max activation in data set [1] of 182%. This compound also came in with an EC50 in data set [2] of 0.064 µM. For the same compound, the CLint scaled in data set [3] worked out at 43.7 mL/min/kg. The Papp at 2 h in data set [5] was determined as 22.3 ×10⁻⁶ cm/s. The Ratio with MDCK came to 1.59. In data set [4], the 50% inhibitory concentration (IC50) was above 300 µM.

`COc1nc(N2CCC(OC)CC2)nc(OC)c1NC(=O)CC1CCCC1`: the max activation in data set [1] was determined as 143%. The compound also showed a concentration for a half-maximal effect (EC50) in data set [2] of 0.343 µM.

As for `COc1nc(N2CC(OC)C2)nc(OC)c1NC(=O)CC(C)(C)C`, the max activation in data set [1] amounted to 103%. The compound further gave an EC50 in data set [2] of 0.961 µM.

In data set [1], `COc1nc(N2CC3(COC3)C2)nc(OC)c1NC(=O)CC(C)(C)C` displayed a max activation of 106%. For the same compound, the concentration for a half-maximal effect (EC50) in data set [2] stood at 9.19 µM.

On to `COc1nc(N2CCC(OC)CC2)nc(OC)c1NC(=O)CC1CCCCC1`, for which the max activation in data set [1] stood at 152%. The compound further gave a half-maximal effective concentration (EC50) in data set [2] of 0.162 µM.
